{"source": "paper PMC10982501", "about": "“Synthesis and biological evaluation of novel benzothiazole derivatives as potential anticancer and antiinflammatory agents” (Frontiers in Chemistry, 2024)", "key": {"[1]": {"assay": "Oil-water partition coefficient (log P) measurement", "type": "physicochemical", "details": "n-octanol/water, room temperature", "experimental": "The partition coefficient between n-octanol and water (log Po/w) is the classical descriptor for Lipophilicity ([Daina et al., 2017]). The test methodology followed previously published protocols ([Wang et al., 2021]). At room temperature, two large Erlenmeyer flasks were taken and filled with n-octanol and water, respectively. The flasks were placed in a constant temperature shaker at 150 rpm for 24 h to saturate the solvents. The mixtures were then transferred to separating funnels under normal pressure to obtain water-saturated n-octanol and n-octanol-saturated water for subsequent use. The target compound (2 mg) was accurately weighed and placed in a 2 mL brown volumetric flask. Anhydrous methanol was added to ultrasonically dissolve the compound, and the mixture was diluted to volume and thoroughly shaken to prepare a 1 mg/mL stock solution. The stock solution was further diluted to obtain 1, 1.5, 2, 2.5, 5 and 10 μg/mL reference solutions for construction of a standard curve using a UV-visible spectrophotometer. An excess amount of the analyte was dissolved in water-saturated n-octanol, and the mixture was shaken at 150 rpm for 24 h at constant temperature to obtain a saturated solution. The saturated solution was allowed to stand, centrifuged, and 1 mL of the supernatant was transferred to a 4 mL centrifuge tube. N-octanol saturated water (1 mL) was added, and the mixture was shaken at 150 rpm for 24 h at constant temperature. After standing for 8 h, the mixture was centrifuged. Appropriate amounts of the n-octanol phase before and after equilibration were diluted with methanol, and concentrations were determined from the standard curve to obtain C0 and C1. The concentration in the n-octanol saturated aqueous phase, Cw, was calculated as Cw = C0 - C1. Thus, log Po/w = […]."}, "[2]": {"system": "A431 cells", "assay": "MTT cell proliferation assay, A431", "type": "cell-based, human", "details": "Homo sapiens, A-431, 48 h; for inhibition at 10 µM: read-out: A431 cells inhibition rate; for IC50: read-out: IC50 (mean ± SD) A431", "experimental": "(§1) Beas-2b, A431, A549 and H1299 cells were cultured in 96-well plates (5 × 10^3 cells/well) for 16 h, respectively. Subsequently, positive compound 4i and 25 newly synthesized compounds were added at a final concentration of 10 μM or gradient concentrations (0.01, 0.1, 0.5, 1, 5 and 10 μM), co-incubated with the cells for 48 h. MTT (M8180, Solarbio) solutions (5 mg/mL) were then added and incubated for 4 h in the dark. Then, formazan crystals were dissolved with DMSO (D8371, Solarbio), followed by shaking on a shaker (DRAGONLAB, China) for 10 min. Finally, absorbance at 490 nm wavelength for each well was measured with Microplate reader (Molecular Devices, United States) ([Tang et al., 2020]; [Lee et al., 2021]). The results are expressed as mean ± SD from three independent experiments. Cells inhibition rates or IC50 values were calculated using GraphPad Prism 9.5.0."}, "[3]": {"system": "A549 cells", "assay": "MTT cell proliferation assay, A549", "type": "cell-based, human", "details": "Homo sapiens, A549, 48 h; for inhibition at 10 µM: read-out: A549 cells inhibition rate; for IC50: read-out: IC50 (mean ± SD) A549", "experimental": "as §1"}, "[4]": {"system": "H1299 cells", "assay": "MTT cell proliferation assay, H1299", "type": "cell-based, human", "details": "Homo sapiens, NCI-H1299, 48 h; for inhibition at 10 µM: read-out: H1299 cells inhibition rate; for IC50: read-out: IC50 (mean ± SD) H1299", "experimental": "as §1"}, "[5]": {"system": "Beas-2b cells", "assay": "MTT cell proliferation and toxicity assay, Beas-2b", "type": "cell-based, human", "details": "Homo sapiens, BEAS-2B, 48 h, read-out: Beas-2b cells inhibition rate", "experimental": "as §1"}, "[6]": {"system": "IL-6", "assay": "ELISA of IL-6 in LPS-stimulated RAW264.7 cells", "type": "cell-based, mouse", "details": "10 μM, RAW264.7, LPS, 24 h, vs blank control", "experimental": "(§2) RAW264.7 cells were cultured in 6-well plates (2×10^5 cells/well) for 24 h and treated with 25 newly synthesized compounds (final concentration at 10 μM) for 30 min, respectively. Subsequently, the cells were stimulated with 1 μL of LPS (500 ng/mL) (L8880, Solarbio). After 24 h, the supernatant was collected and analyzed using an ELISA kit (EK206 and EK182, MULTISCIENCES) to quantify the levels of inflammatory cytokines IL-6 and TNF-α ([Li et al., 2021])."}, "[7]": {"system": "TNF-α", "assay": "ELISA of TNF-α in LPS-stimulated RAW264.7 cells", "type": "cell-based, mouse", "details": "10 μM, RAW264.7, LPS, 24 h, vs blank control", "experimental": "as §2"}, "[8]": {"system": "A431 cells", "assay": "Flow cytometry analysis of cell apoptosis, A431", "type": "cell-based, human", "details": "A431, 1, 2 and 4 μM, 24 h", "experimental": "(§3) The A431 and A549 cells were cultured in 6-well plates (1×10^5 cells/mL) for 16 h. Subsequently, cells were treated with different concentrations (1, 2 and 4 μM) of either B7 or 4i for 24 h. Then, the cells were collected, washed, and stained with the FITC Annexin V Apoptosis Detection Kit I (556547, BD) ([Jiang et al., 2017]). Sample testing was performed using a FACS Calibur Flow Cytometer (BD, United States), and subsequent data analysis was performed using FlowJo 10.6.2."}, "[9]": {"system": "A549 cells", "assay": "Flow cytometry analysis of cell apoptosis, A549", "type": "cell-based, human", "details": "A549, 1, 2 and 4 μM, 24 h", "experimental": "as §3"}, "[10]": {"system": "A431 cells", "assay": "Flow cytometry analysis of cell cycle, A431", "type": "cell-based, human", "details": "A431, 24 h", "experimental": "(§4) The A431 and A549 cells were cultured in 6-well plates (1×10^5 cells/mL) for 16 h. Subsequently, they were treated with different concentrations (1, 2 and 4 μM) of either B7 or 4i (4 μM) for 24 h. Cells were collected, mixed by adding 75% ethanol with shaking on a vortex shaker, and placed in the refrigerator at 4°C for overnight fixation. The cells were incubated with PI-Raze solution for 15 min at room temperature, protected from light, according to the instructions of BD Cycletest Plus DNA Reagent Kit (340242, BD), and detected by FACS Calibur flow cytometry ([Oh et al., 2023]), and subsequent data analysis was performed using FlowJo 10.6.2."}, "[11]": {"system": "A549 cells", "assay": "Flow cytometry analysis of cell cycle, A549", "type": "cell-based, human", "details": "A549, 24 h", "experimental": "as §4"}, "[12]": {"system": "A431 cells", "assay": "Wound healing analysis of cell migration, A431", "type": "cell-based, human", "details": "A431, 4 μM, 48 h, compared to 4i", "experimental": "(§5) The A431 and A549 cells were cultured in 6-well plates (5×10^5 cells/well). When the cell confluency reached approximately 90%, used a sterile 10 μL pipette tip to create three parallel scratches evenly. Subsequently, rinsed with PBS to remove floating cells, and then treated with B7 and 4i at final concentrations of 4 μM. Captured images using a microscope camera system (Nikon, JPN) at 0 and 48 h post-treatment ([Xu et al., 2023])."}, "[13]": {"system": "A549 cells", "assay": "Wound healing analysis of cell migration, A549", "type": "cell-based, human", "details": "A549, 4 μM, 48 h, compared to 4i", "experimental": "as §5"}, "[14]": {"system": "AKT", "assay": "Western blot, AKT phosphorylation", "type": "cell-based, human", "details": "A431 and A549 cells, 1, 5 and 10 μM, 2 h", "experimental": "(§6) The A431 and A549 cells were cultured in 6-well plates (2×10^5 cells/well) for 2 h and treated with different concentrations of B7(1, 5, and 10 μM) or 4i (10 μM). The corresponding cells were collected, washed with PBS (P1020, Solarbio), and lysed with RIPA buffer (R0010, Solarbio) to extract the total proteins. The extracted protein was loaded, subjected to SDS-PAGE electrophoresis (Bio-Rad) ([Xu et al., 2023]), and then the protein was transferred to a PDVF membrane (IPVH00010, Millipore) and incubated in the corresponding Primary Antibody AKT (9272, Cell Signaling Technology), phospho-AKT (4058, Cell Signaling Technology), ERK (A4782, ABclonal Technology), phospho-ERK (AP0974, ABclonal Technology) and GAPDH (AB0037, Abways Technology) overnight. Then, the Primary Antibody was recovered and enzyme-labeled secondary antibodies Goat Anti-Rabbit IgG HRP (H + L) (A0208, Beyotime Technology) were used. Finally, Imaging was performed on a gel Imaging System (Bio-Rad, United States) using the Ultra-sensitive ECL Chemiluminescence Assay Kit (P0018AS, Beyotime Technology)."}, "[15]": {"system": "ERK", "assay": "Western blot, ERK phosphorylation", "type": "cell-based, human", "details": "A431 and A549 cells, 1, 5 and 10 μM, 2 h", "experimental": "as §6"}, "[16]": {"system": "common anti-tumor receptor kinases", "assay": "Activity of common anti-tumor receptor kinases"}, "[17]": {"system": "human cancer cell lines", "parameters": "method as in Mortimer et al., 2006", "details": "particularly non-small cell lung, colon and breast cancer lines; ref Mortimer et al., 2006; cited from earlier work"}, "[18]": {"system": "non-small cell lung cancer cell line HOP-92", "parameters": "method as in Noolvi et al., 2012", "details": "ref Noolvi et al., 2012; cited from earlier work"}}, "data": [{"smiles": "Clc1ccc2nc(N(Cc3ccccc3)Cc3ccccc3)sc2c1", "note": "[D2, N,N-dibenzyl-6-chlorobenzo[d]thiazol-2-amine]", "values": [{"measurement": "logP", "setting": "[1]", "value": "5.82 ± 0.22"}, {"measurement": "inhibition at 10 µM", "setting": "[2]", "value": "43.6 ± 1.39", "unit": "%"}, {"measurement": "inhibition at 10 µM", "setting": "[3]", "value": "40.3 ± 1.06", "unit": "%"}, {"measurement": "inhibition at 10 µM", "setting": "[4]", "value": "46.9 ± 2.71", "unit": "%"}, {"measurement": "inhibition at 10 µM", "setting": "[5]", "value": "24.3 ± 3.1", "unit": "%"}, {"measurement": "effect on IL-6 expression", "setting": "[6]", "value": "significant inhibitory effects"}, {"measurement": "effect on TNF-α expression", "setting": "[7]", "value": "significant inhibitory effects"}]}, {"smiles": "O=[N+]([O-])c1ccc(CNc2nc3ccc(Cl)cc3s2)cc1", "note": "[B7, 6-chloro-N-(4-nitrobenzyl)benzo[d]thiazol-2-amine]", "values": [{"measurement": "logP", "setting": "[1]", "value": "3.25 ± 0.24"}, {"measurement": "IC50", "setting": "[2]", "value": "1.51 ± 0.2", "unit": "µM"}, {"measurement": "IC50", "setting": "[3]", "value": "0.96 ± 0.24", "unit": "µM"}, {"measurement": "IC50", "setting": "[4]", "value": "1.68 ± 0.12", "unit": "µM"}, {"measurement": "inhibition at 10 µM", "setting": "[5]", "value": "16.6 ± 1.36", "unit": "%"}, {"measurement": "effect on IL-6 expression", "setting": "[6]", "value": "significant inhibitory effects"}, {"measurement": "effect on TNF-α expression", "setting": "[7]", "value": "significant inhibitory effects"}, {"measurement": "apoptosis rate, in words", "setting": "[8]", "value": "gradual increase in the apoptosis rate"}, {"measurement": "apoptosis rate, in words", "setting": "[9]", "value": "gradual increase in the apoptosis rate"}, {"measurement": "cell cycle arrest, in words", "setting": "[10]", "value": "G2 phase cell cycle arrest effect"}, {"measurement": "cell cycle arrest, in words", "setting": "[11]", "value": "G2 phase cell cycle arrest effect"}, {"measurement": "migration inhibitory effect, in words", "setting": "[12]", "value": "slightly surpassed that of 4i"}, {"measurement": "inhibitory effect on cell migration, in words", "setting": "[13]", "value": "stronger inhibitory effect"}, {"measurement": "AKT protein phosphorylation, in words", "setting": "[14]", "value": "markedly inhibit"}, {"measurement": "ERK protein phosphorylation, in words", "setting": "[15]", "value": "markedly inhibit"}, {"measurement": "impact on common anti-tumor receptor kinases, in words", "setting": "[16]", "value": "minimal impact"}]}, {"smiles": "CCOC(=O)COc1ccccc1-c1nc2ccccc2s1", "note": "[A1, Ethyl 2-(2-(benzo[d]thiazol-2-yl)phenoxy)acetate]", "values": [{"measurement": "logP", "setting": "[1]", "value": "2.35 ± 0.21"}, {"measurement": "inhibition at 10 µM", "setting": "[2]", "value": "45.6 ± 1.21", "unit": "%"}, {"measurement": "inhibition at 10 µM", "setting": "[3]", "value": "42.3 ± 1.15", "unit": "%"}, {"measurement": "inhibition at 10 µM", "setting": "[4]", "value": "49.5 ± 0.84", "unit": "%"}, {"measurement": "inhibition at 10 µM", "setting": "[5]", "value": "10.2 ± 0.92", "unit": "%"}, {"measurement": "effect on IL-6 expression", "setting": "[6]", "value": "significant inhibitory effects"}, {"measurement": "effect on TNF-α expression", "setting": "[7]", "value": "significant inhibitory effects"}]}, {"smiles": "COc1ccc(-c2nc3cc(F)ccc3s2)cc1OC", "note": "[PMX610, 2-(3,4-dimethoxyphenyl)-5-fluorobenzothiazole]", "values": [{"measurement": "in vitro anti-tumor properties in human cancer cell lines, in words", "setting": "[17]", "value": "potent and selective in vitro anti-tumor properties"}]}, {"smiles": "Clc1cccc(Cl)c1Nc1nc2cccc(Cl)c2s1", "note": "[4i, 7-chloro-N-(2,6-dichlorophenyl) benzo[d] thiazole-2-amine, reference compound]", "values": [{"measurement": "IC50", "setting": "[2]", "value": "2 ± 0.41", "unit": "µM"}, {"measurement": "IC50", "setting": "[3]", "value": "1.09 ± 0.32", "unit": "µM"}, {"measurement": "IC50", "setting": "[4]", "value": "2.48 ± 0.53", "unit": "µM"}, {"measurement": "cell cycle arrest, in words", "setting": "[10]", "value": "G2 phase cell cycle arrest effect"}, {"measurement": "cell cycle arrest, in words", "setting": "[11]", "value": "G2 phase cell cycle arrest effect"}, {"measurement": "anticancer activity against HOP-92, in words", "setting": "[18]", "value": "promising anticancer activity"}]}]}
